Laboratory results: ChEMBL document CHEMBL4765379, “Synthesis and biological evaluation of diaryl urea derivatives designed as potential anticarcinoma agents using de novo structure-based lead optimization approach” (Eur J Med Chem, 2020)

What was measured:
HT-29 = assay: Antiproliferative activity against human HT-29 cells assessed as reduction in cell growth incubated for 48 hrs by MTT assay; type: functional, cell-based; conditions: HT-29, 48 h
A549 = assay: Antiproliferative activity against human A549 cells assessed as reduction in cell growth incubated for 48 hrs by MTT assay; type: functional, cell-based; conditions: A549, 48 h

Row | SMILES | IC50 (HT-29) [µM] | IC50 (A549) [µM]
1 | O=C(Nc1ccccc1)Nc1ccc(OC(=O)c2ccccc2)cc1 | 123 | 81.2
2 | O=C(Nc1ccccc1)Nc1ccc(NC(=O)c2ccccc2)cc1 | 12.7 | 23.9
3 | O=C(Nc1ccc(OC(=O)c2cc3cc([N+](=O)[O-])ccc3s2)cc1)Nc1ccc(Oc2ccccc2)cc1 | 13.3 | 25.2
4 | O=C(Nc1ccc(Cl)cc1)Nc1ccc(OC(=O)c2ccccc2)cc1 | 56 | 24.7
5 | Cc1ccc(NC(=O)Nc2ccc(OC(=O)c3ccccc3)cc2)cc1 | 104 | 47.7
6 | COc1ccc(C(=O)Oc2ccc(NC(=O)Nc3ccccc3)cc2)cc1 | 175 | 60.2
7 | CC(=O)c1cccc(NC(=O)Nc2ccc(OC(=O)c3cc4cc([N+](=O)[O-])ccc4s3)cc2)c1 | 457 | 61.5
8 | O=C(Nc1ccc(OC(=O)c2ccccc2)cc1)Nc1ccc(Cl)c(C(F)(F)F)c1 | 151 | 30.1
